Among the test systems are EKVX; Hs-578T; OVCAR-5; SN12C; ACHN; MCF7; U-251; HL-60; SK-OV-3; LOX IMVI; HT-29; DU-145; HOP-62; HCT-116; NCI-H226; NCI-H522; TK-10; A549; BT-549; HCT-15.
Assay in all cases: NCI anticancer screen, dose series, 48 h

The structures appear in SMILES notation.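 Each compound was tested at five concentrations against cells in 96-well plates for 48 hours. Here, GI50 denotes the concentration required for 50% inhibition of growth.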 Activity calls are given as the source filed them. Cut-off read from the data, not from the text of the source: active = GI50 up to about 1.1 µM and inactive = higher. Bounds are passed on as bounds.

Regarding `COC(=O)[C@H]1CO[C@@H](C(C)(C)C)N1C(=O)N1C=CC(=O)C[C@@H]1C`, the GI50 in the test on EKVX, in the test with Hs-578T, in the test with OVCAR-5, in the test on SN12C, in the test with ACHN and with MCF7 was > 100 µM (inactive) throughout. For the same compound, the GI50 with U-251, in the test on HL-60, in the test with SK-OV-3, with LOX IMVI, with HT-29 and in the test with DU-145 was > 100 µM (inactive) in each case. In addition, the GI50 in the test with HOP-62, in the test with HCT-116, with NCI-H226, with NCI-H522, with TK-10 and in the test with A549 was > 100 µM (inactive) each time. For the same compound, the GI50 with BT-549 was > 100 µM (inactive).
`O=S(=O)(CCn1c(Sc2ccccc2)c(Sc2ccccc2)c2ccccc21)c1ccccc1`: the GI50 in the test on EKVX was > 100 µM (inactive); with Hs-578T, 40.5 µM (inactive); in the test with OVCAR-5, > 100 µM (inactive); with SN12C, > 100 µM (inactive); in the test on HCT-15, greater than 100 µM; with ACHN, > 100 µM (inactive). The GI50 in the test with MCF7, in the test on U-251, in the test on HL-60, with SK-OV-3, with LOX IMVI and in the test on HT-29 was > 100 µM (inactive) throughout. Moreover, the GI50 in the test on DU-145, in the test with HOP-62, in the test on HCT-116, with NCI-H226, in the test with NCI-H522 and in the test on TK-10 was > 100 µM (inactive) each time. Besides, the GI50 with A549 and in the test on BT-549 was > 100 µM (inactive) in each case.
For `c1ccc(CN2CCN3CCN(CC2)CCN(Cc2ccccc2)CC3)cc1`, the GI50 in the test on EKVX is 8.47 µM (inactive); in the test with Hs-578T it was 14.6 µM (inactive); in the test with OVCAR-5 it was 9.48 µM (inactive); in the test with SN12C it was 4.51 µM (inactive); in the test with HCT-15, 32.4 µM; in the test on ACHN, 20.7 µM (inactive). Besides, the GI50 with MCF7 is 5.5 µM (inactive); with U-251 it was 4.29 µM (inactive); in the test on HL-60, 2.55 µM (inactive); in the test on SK-OV-3 it was 16.4 µM (inactive); with LOX IMVI, 8.81 µM (inactive); with HT-29, 3.37 µM (inactive). Moreover, the GI50 with DU-145 is 12.4 µM (inactive); in the test with HOP-62 it was 14.2 µM (inactive); in the test on HCT-116 it was 4.09 µM (inactive); with NCI-H226, 4.94 µM (inactive); in the test with NCI-H522 it was 4.36 µM (inactive); in the test on TK-10 it was 11.4 µM (inactive). The GI50 in the test on A549 is 11.5 µM (inactive); in the test on BT-549, 5.16 µM (inactive).
With `Cc1ccc2c(c1C)-c1c(ccc(C)c1C)C(=O)C2=O`, the GI50 with EKVX was 2.13 µM (inactive); in the test on Hs-578T, 0.342 µM (active); in the test on OVCAR-5 it was 1.55 µM (inactive); in the test on SN12C, 0.817 µM (active); in the test with HCT-15, 0.292 µM; in the test on ACHN it was 0.625 µM (active). Moreover, the GI50 in the test with MCF7 is 0.21 µM (active); in the test on U-251 it was 0.432 µM (active); in the test on HL-60 it was 0.219 µM (active); in the test on SK-OV-3, 2.15 µM (inactive); with LOX IMVI, 0.304 µM (active); with HT-29, 2.36 µM (inactive). Besides, the GI50 was 1.14 µM (inactive) in the test with DU-145; 1.39 µM (inactive) with HOP-62; 0.361 µM (active) in the test with HCT-116; 1.66 µM (inactive) with NCI-H226; 0.148 µM (active) in the test on NCI-H522; 1.18 µM (inactive) in the test on TK-10. For the same compound, the GI50 in the test on A549 was 0.887 µM (active); with BT-549 it was 0.335 µM (active).
In the case of `N=C1OC(c2cccc(Cl)c2)C(NNS(=O)(=O)c2ccccc2)=C1O` (stereo unspecified), the GI50 in the test with EKVX was 68.4 µM (inactive); in the test on Hs-578T it was 27.4 µM (inactive); in the test with OVCAR-5 it was 31.9 µM (inactive); in the test on SN12C it was 44.7 µM (inactive); in the test on HCT-15, 12.2 µM; with ACHN, 31.6 µM (inactive). Besides, the GI50 is 22.4 µM (inactive) in the test with MCF7; 33.3 µM (inactive) in the test on U-251; 2.87 µM (inactive) with HL-60; > 100 µM (inactive) in the test with SK-OV-3; 20.7 µM (inactive) with LOX IMVI; 19.9 µM (inactive) with HT-29. For the same compound, the GI50 in the test with DU-145 was > 100 µM (inactive); with HOP-62 it was > 100 µM (inactive); in the test with HCT-116 it was 21.3 µM (inactive); with NCI-H226, 43.9 µM (inactive); with NCI-H522, 10.6 µM (inactive); in the test with TK-10 it was 37.7 µM (inactive). Further, the GI50 was 80.9 µM (inactive) in the test with A549 and 37 µM (inactive) with BT-549.
Consider `CN(C)CCOC1(CC2CCCCC2)CCC(C(C)(C)C)CC1` (stereo unspecified), for which the GI50 is 8.07 µM (inactive) in the test with EKVX; 6.78 µM (inactive) in the test on Hs-578T; 5.53 µM (inactive) with OVCAR-5; 6.46 µM (inactive) in the test with SN12C; 3.75 µM in the test with HCT-15; 7.57 µM (inactive) in the test with ACHN. The GI50 with MCF7 was 2.98 µM (inactive); in the test on U-251 it was 4.74 µM (inactive); in the test on HL-60, 2.54 µM (inactive); in the test on SK-OV-3 it was 11.6 µM (inactive); in the test with LOX IMVI it was 2.73 µM (inactive); with HT-29, 2.43 µM (inactive). In addition, the GI50 in the test with DU-145 is 7.01 µM (inactive); in the test with HOP-62 it was 4.04 µM (inactive); with HCT-116, 4.36 µM (inactive); in the test on NCI-H226, 6.84 µM (inactive); with NCI-H522 it was 1.56 µM (inactive); with TK-10, 12.8 µM (inactive). The GI50 is 5.56 µM (inactive) in the test on A549 and 6.19 µM (inactive) in the test with BT-549.
For `Cc1nnc(N)nc1/C=C\c1ccc(Cl)cc1Cl`, the GI50 is 39.5 µM (inactive) in the test with EKVX; 29.2 µM (inactive) in the test with Hs-578T; 42.5 µM (inactive) in the test with OVCAR-5; 61.5 µM (inactive) with SN12C; 23.3 µM in the test on HCT-15; 36.4 µM (inactive) in the test on ACHN. Also, the GI50 in the test on MCF7 is 32.8 µM (inactive); in the test with U-251, 34.8 µM (inactive); with HL-60, 27 µM (inactive); in the test with SK-OV-3, 45.5 µM (inactive); in the test on LOX IMVI, 40.2 µM (inactive); in the test on HT-29 it was 20.6 µM (inactive). Moreover, the GI50 is 72.8 µM (inactive) in the test on DU-145; 20.3 µM (inactive) in the test on HOP-62; 26.9 µM (inactive) in the test on HCT-116; 17.3 µM (inactive) in the test on NCI-H226; 24.2 µM (inactive) in the test on NCI-H522; > 100 µM (inactive) in the test with TK-10. Moreover, the GI50 is 39.2 µM (inactive) in the test with A549 and 72.3 µM (inactive) in the test on BT-549.
In the case of `CC1(CC(=O)OC(C#C[Si](C)(C)C)Cc2ccccc2)OCCO1` (stereo unspecified), the GI50 in the test with EKVX was > 100 µM (inactive); in the test on Hs-578T it was > 100 µM (inactive); in the test with OVCAR-5, > 100 µM (inactive); in the test on SN12C it was > 100 µM (inactive); in the test on HCT-15, greater than 100 µM; with ACHN, > 100 µM (inactive). Also, the GI50 in the test with MCF7, in the test on U-251, in the test on HL-60, in the test on SK-OV-3, with LOX IMVI and in the test on HT-29 was > 100 µM (inactive) in each case. Also, the GI50 with DU-145, in the test with HOP-62, in the test on HCT-116, in the test with NCI-H226, in the test with NCI-H522 and in the test with TK-10 was > 100 µM (inactive) in each case. Also, the GI50 in the test with A549 and with BT-549 was > 100 µM (inactive) throughout.
For the compound `COC1CC(N)C(O)C(C)O1` (stereo unspecified), the GI50 in the test with EKVX is > 100 µM (inactive); in the test on Hs-578T, > 100 µM (inactive); in the test on OVCAR-5 it was > 100 µM (inactive); in the test on SN12C, > 100 µM (inactive); with HCT-15 it was greater than 100 µM; in the test with ACHN, > 100 µM (inactive). The GI50 in the test on MCF7, with U-251, in the test with HL-60, in the test with SK-OV-3, in the test on LOX IMVI and in the test on HT-29 was > 100 µM (inactive) in each case. The GI50 with DU-145, in the test on HOP-62, in the test on HCT-116, with NCI-H226, with NCI-H522 and in the test on BT-549 was > 100 µM (inactive) in each case.
With `COc1cc(C23OCC(Cc4cc5c(cc42)OCO5)C3CO)cc(OC)c1OC` (stereo unspecified), the GI50 with EKVX was > 100 µM (inactive); in the test with Hs-578T, 18.5 µM (inactive); with OVCAR-5, 6.81 µM (inactive); in the test on HCT-15, 0.538 µM; in the test with ACHN, 7.13 µM (inactive); with MCF7, 0.21 µM (active). For the same compound, the GI50 was 2.94 µM (inactive) in the test on U-251; 2.76 µM (inactive) in the test with HL-60; 3.19 µM (inactive) in the test with SK-OV-3; 1.97 µM (inactive) in the test with LOX IMVI; 5.64 µM (inactive) in the test on HT-29; 2.64 µM (inactive) in the test with DU-145. For the same compound, the GI50 was 4.34 µM (inactive) in the test on HOP-62; 2.89 µM (inactive) in the test on HCT-116; 3.85 µM (inactive) in the test on NCI-H226; 2.22 µM (inactive) with NCI-H522; > 24.4 µM (inactive) with TK-10; 3.48 µM (inactive) in the test with A549. Also, the GI50 in the test on BT-549 was 56.6 µM (inactive).
